Reference: US20130317037A1, “METHOD OF ADMINISTRATION AND TREATMENT” (GlaxoSmithKline Intellectual Property Development Limited, priority 2010, published 2013)
Read-outs that look alike come from different tables or passages of the source.

Assays:
T-47D = experiment: Panel A proliferation assay (CellTiter-Glo); HER2 Gain <5, KRAS WT, PIK3CA p.H1047R; format: cell-based, human; conditions: for IC50: Homo sapiens, T47D
Description: (§1) A total of 15 breast cancer cell lines were used in this study. These cells were cultured in RPMI-1640 and supplemented with 5% or 10% fetal bovine serum, 2 mM GlutaMAX™ and 1 mM sodium pyruvate, or in growth medium recommended by the suppliers [American Type Culture Collection, Manassas, Va., USA; Developmental Therapeutics Program, National Cancer Institute, Bethesda, Md., USA; German Collection of Microorganisms and Cell Cultures (DSMZ), Braunschweig, Germany; European Collection of Cell Cultures (ECACC), Porton Down, UK]. Cells of each line were seeded into a 384-well microtiter plate at two cell densities. Low density ranges were 300-1800 cells/well, and a high density was 600 to 3600 cells/well). The plating density was determined by the rate of proliferation of the cell line in the absence of any inhibitor and varied amongst cell lines. High plating densities were double that of low density. Each cell density was plated in triplicate. In total there were 30 wells to be treated with increasing concentrations of Compound B for each cell line at each density. In addition, there were 24 wells of dimethyl sulfoxide (DMSO)-treated controls at each density. After seeding, the cells were incubated at 37° C. in 5% CO2 for 24 hours. Subsequently, Compound B was added to each cell line with 10 concentrations. The dosing solution of Compound B was first prepared in DMSO at a master stock concentration of 10 mM. […] were then made of the stock solution to give a range of working stock concentrations; 10.00 mM, 3.164 mM, 1.001 mM, 316.9 μM, 100.3 μM, 31.74 μM, 10.04 μM, 3.178 μM, 1.006 μM and 318.3 nM. The working stock concentrations of Compound B were then dispensed into the seeded cancer cell lines using a Biomek FX liquid handler to give final treatment concentrations of 0.1% of the stock concentration. A similar volume of DMSO without Compound B was dispensed into the 24 control wells of each seeding density at a concentration of 0.1%. Also, a zero-time plate prepared with a similar cell seeding was read for each cell line at each seeding density immediately after the addition of the DMSO control. After a 72 h incubation, an equal volume of the CellTiter-Glo (CellTiter-Glo Luminescent Cell Viability Assay, Promega, Madison, Wis.) to that of the cell culture medium was added into each well of the plate. After the contents were mixed to induce cell lysis and stabilization, cell luminescence was recorded using a SpectraMax M5^e (Molecular Devices, Sunnyvale, Calif., USA)
(§2) The luminescence of Compound B treated cells was compared relative to the average of the 24 DMSO-treated control wells at each cell density for every concentration of Compound B for all triplicate wells. The percent intensity values were used in model 205 of XLfit in Microsoft Excel to calculate gIC50s for the low and high seeding density (a 4 parameter logistical fit). Specifically, the midpoint of the growth window (the gIC50) falls half way between the number of cells at the time of compound addition (T=0) and the growth of control cells treated with DMSO. The gIC50 value serves as a metric for measuring the inhibition of proliferation in cancer cells. […] Finally, where data quality permits, the Ymin values (defined as the maximum growth inhibition relative to the cell density at Time-zero) were calculated as a measure of cytotoxicity where data were of reasonable quality.

BT-20 = experiment: Panel A proliferation assay (CellTiter-Glo); HER2 2 copies, KRAS WT, PIK3CA p.P539R; format: cell-based, human; conditions: for IC50: Homo sapiens
Description: as §1, §2

HCC1569 = experiment: cells; format: cell-based
Description: (§3) From the stock concentration, 8 serial dilutions (1:5) were made with DMSO.
(§4) Day −1: Plate cells in 100 μl volume in 96 well plate. • Note: Cell number seeded adjusted for growth characteristics, so that at time of assay for proliferation following three-day drug treatment, the control wells should still be in log-growth phase (sub-confluent). Day 0: Drug added to plate for treatment. • A time 0 plate was processed for the proliferation assay to establish a baseline reading at time when drug was added.
(§5) LBNL are following the protocols set up by the NCI/NIH DTP Human Tumor Cell Line Screen Process (http://dtp.nci.nih.gov/branches/btb/ivclsp.html) and summarized below.
(§6) [(Ti−Tz)/(C−Tz)]×100 for concentrations for which Ti>/=Tz
(§7) [(Ti−Tz)/(C−Tz)]×100=50, • which is the drug concentration resulting in a 50% reduction in the net growth in control cells during the drug incubation. TGI: Total growth inhibition is calculated from
(§8) Ti=Tz. • The drug concentration resulting in total growth inhibition (down to the ‘time 0’ baseline). LC50: Net loss of cell growth at 50% is calculated from
(§9) [(Ti−Tz)/Tz]×100=−50. • The concentration of drug resulting in a 50% reduction in the cell number at the end of the drug treatment as compared to that at the beginning (time 0) indicating a net loss of cells following treatment.
(§10) Values are calculated for each of these three parameters if the level of activity is reached; however, if the effect is not reached or is exceeded, the value for that parameter is expressed as greater or less than the maximum or minimum concentration tested.

HCC3153 = experiment: cells; format: cell-based
Description: as §3, §4, §5, §6, §7, §8, §9, §10

SUM225CWN = experiment: cells; format: cell-based
Description: as §3, §4, §5, §6, §7, §8, §9, §10

[1] = tested on: panel of 51 human breast cell lines; experiment: Breast Cell Line Panel B proliferation assay, panel summary; format: cell-based; conditions: for IC50: 51 human breast cell lines
Description: as §3
Generally, about 5 μl was added to the 100 μl of cell culture during the treatment, and each dose was replicated in three wells.
as §4, §5, §6
[(Ti−Tz)/Tz]×100 for concentrations for which Ti<Tz. • C: control growth (vehicle control growth) • Tz: reading at time 0 • Ti: test growth in the presence of drug at the nine concentration levels gIC50: Growth inhibition of 50% is calculated from
as §7, §8, §9, §10

PI3K family of enzymes = experiment: Selectivity in a large panel of protein kinases; format: biochemical

Compound: COc1ncc(-c2ccc3nccc(-c4ccnnc4)c3c2)cc1NS(=O)(=O)c1ccc(F)cc1F [Compound B, 2,4-difluoro-N-{2-(methyloxy)-5-[4-(4-pyridazinyl)-6-quinolinyl]-3-pyridinyl}benzenesulfonamide]
- IC50 (T-47D; high seeding density, 72 h, read-out: High Density gIC50): 1.8 nM
- IC50 (T-47D; low seeding density, 72 h, read-out: Low Density gIC50): 1.1 nM
- IC50 (T-47D; mean of low and high density, read-out: Mean gIC50): 1.45 nM
- High Density Y-Min (T-47D; high density, % of cells at T = 0): 103.6%
- Low Density Y-Min (T-47D; low density, % of cells at T = 0): 104.6%
- High Density Y-Min (BT-20; BT-20, high density, % of cells at T = 0): 20.7%
- Low Density Y-Min (BT-20; BT-20, low density, % of cells at T = 0): 10.7%
- IC50 (BT-20; BT-20, high seeding density, 72 h, read-out: High Density gIC50): 7.8 nM
- IC50 (BT-20; BT-20, low seeding density, 72 h, read-out: Low Density gIC50): 6.3 nM
- IC50 (BT-20; BT-20, mean of low and high density, read-out: Mean gIC50): 7.05 nM
- TGI (HCC1569; HCC1569, total growth inhibition): 67.4 nM
- IC50 (HCC1569; Homo sapiens, 72 h, HCC1569, three-day drug treatment, read-out: gIC50): 16.3 nM
- CC50 (HCC1569; Homo sapiens, HCC1569, 50% net loss of cells vs time 0, read-out: LC50 (the source's name)): > 33000 nM
- TGI (HCC3153; HCC3153, total growth inhibition): 281.8 nM
- IC50 (HCC3153; Homo sapiens, 72 h, HCC3153, three-day drug treatment, read-out: gIC50): 38.9 nM
- CC50 (HCC3153; Homo sapiens, HCC3153, 50% net loss of cells vs time 0, read-out: LC50 (the source's name)): ≥ 35500 nM
- CC50 (SUM225CWN; Homo sapiens, 50% net loss of cells vs time 0, read-out: LC50 (the source's name)): 436 nM
- IC50 (SUM225CWN; Homo sapiens, 72 h, three-day drug treatment, read-out: gIC50): 1.6 nM
- TGI (SUM225CWN; total growth inhibition): 14.8 nM
- IC50 ([1]; read-out: average gIC50): 28.9 nM
- IC50 ([1]; read-out: gIC50s across the panel (range)): 1.1 to 398 nM
- IC50 ([1]; read-out: overall median gIC50): 10.4 nM
- tumor cell lines with gIC50>30 nM ([1]; number of lines / lines tested): 16/51
- tumor cell lines with gIC50s<3 nM ([1]; number of lines / lines tested): 7/51
- selectivity for the PI3K family of enzymes (PI3K family of enzymes): good selectivity
